Measurements published in ChEMBL document CHEMBL4043070, “Isolation, Structure Elucidation, and Absolute Configuration of Syncarpic Acid-Conjugated Terpenoids from Rhodomyrtus tomentosa” (J Nat Prod, 2017).

Columns and labels:
[1] = Cytotoxicity against human MCF7/DX cells incubated for 48 hrs by MTT assay; assay type: cell-based
[2] = Reversal of multidrug resistance in human MCF7/DX cells assessed as potentiation doxorubicin-induced cytotoxicity by measuring reduction in doxorubicin IC50 level at 30 uM incubated for 48 hrs by MTT assay relative to untreated control; assay type: functional
[3] = Reversal of multidrug resistance in human MCF7/DX cells assessed as potentiation doxorubicin-induced cytotoxicity by measuring reduction in doxorubicin IC50 level at 5 uM incubated for 48 hrs by MTT assay relative to untreated control; assay type: functional

SMILES: CC(C)C[C@@H]1C[C@@]2(CC[C@]3(C(C)C)C[C@H]23)OC2=C1C(=O)C(C)(C)C(=O)C2(C)C
- IC50 [1]: > 30 µM
- fold change (FC) [2]: 4.5

SMILES: CC(C)C[C@@H]1C[C@]2(CC[C@]3(C(C)C)C[C@H]23)OC2=C1C(=O)C(C)(C)C(=O)C2(C)C
- IC50 [1]: > 30 µM
- fold change (FC) [2]: 1.2

SMILES: C=C[C@]1(CCC=C(C)C)C[C@@H](CC(C)C)C2=C(O1)C(C)(C)C(=O)C(C)(C)C2=O
- IC50 [1]: > 30 µM
- fold change (FC) [2]: 7.4

SMILES: C=C[C@@]1(CCC=C(C)C)C[C@@H](CC(C)C)C2=C(O1)C(C)(C)C(=O)C(C)(C)C2=O
- IC50 [1]: > 30 µM
- fold change (FC) [2]: 4.7

SMILES: Cc1ccc2c(c1)[C@H](C(C)C)CC[C@]21C[C@H](CC(C)C)C2=C(O1)C(C)(C)C(=O)C(C)(C)C2=O
- IC50 [1]: > 30 µM
- fold change (FC) [2]: 0.9

SMILES: C=C[C@]1(CCC=C(C)C)C[C@H](CC(C)C)C2=C(O1)C(C)(C)C(=O)C(C)(C)C2=O
- IC50 [1]: > 30 µM
- fold change (FC) [2]: 16.5

SMILES: CC(C)C[C@H]1C[C@@]2(CC[C@]3(C(C)C)C[C@H]23)OC2=C1C(=O)C(C)(C)C(=O)C2(C)C
- IC50 [1]: > 30 µM
- fold change (FC) [2]: 1

SMILES: CC(C)C[C@H]1C[C@]2(CC[C@]3(C(C)C)C[C@H]23)OC2=C1C(=O)C(C)(C)C(=O)C2(C)C
- IC50 [1]: > 30 µM
- fold change (FC) [2]: 5.6

SMILES: C=C[C@@]1(CCC=C(C)C)C[C@H](CC(C)C)C2=C(O1)C(C)(C)C(=O)C(C)(C)C2=O
- IC50 [1]: > 30 µM
- fold change (FC) [2]: 10.1

SMILES: COc1ccc(CCN(C)CCCC(C#N)(c2ccc(OC)c(OC)c2)C(C)C)cc1OC (centres undefined)
- fold change (FC) [3]: 5.4
